Where “and” joins values, the source holds several entries; their conditions need not be identical. Equal values may be shown once. Inconclusive results and toxic doses are left out. The calls were made as follows: active = survival T/C of 150% or more; inactive = T/C below 125% in these data.
Test system: P388 leukemia ip, CD2F1 mice, survival T/C
Assay: NCI In Vivo Anticancer Drug Screen. Data for tumor model P388 Leukemia (intraperitoneal) in CD2F1 (CDF1) mice
Conditions: endpoint: median survival time, higher = longer survival
Procedure, shortened: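 Mice carrying the transplanted tumor received test compound or vehicle. Survival was recorded in each group, and the value is the treated-group measurement divided by that of the vehicle-treated control group.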

[1] = dose: 50.0 mg/kg/injection, schedule: Q01DX009 (ip), vehicle: saline
[2] = dose: 100.0 mg/kg/injection, schedule: Q01DX009 (ip), vehicle: saline
[3] = dose: 200.0 mg/kg/injection, schedule: Q01DX009 (ip), vehicle: saline
[4] = dose: 100.0 mg/kg/injection, schedule: Q04DX003 (ip), vehicle: saline

Measured: T/C

CCN(C/C=C/CN(CC)C(=S)Nc1ccccc1)C(=S)Nc1ccccc1
inactive: [1] 106 % of control | [2] 108 % of control | [3] 106 % of control

O=S(=O)(O)O.[W]
inactive: dose: 0.38 mg/kg/injection, schedule: Q01DX009 (ip), vehicle: saline with Tween-80 91 % of control | dose: 0.38 mg/kg/injection, schedule: Q01DX009 (ip), vehicle: saline 99 % of control | dose: 0.75 mg/kg/injection, schedule: Q01DX009 (ip), vehicle: saline 89 % of control and 96 % of control | dose: 1.5 mg/kg/injection, schedule: Q01DX009 (ip), vehicle: saline with Tween-80 100 % of control | dose: 1.5 mg/kg/injection, schedule: Q01DX009 (ip), vehicle: saline 98 % of control and 86 % of control | dose: 3.0 mg/kg/injection, schedule: Q01DX009 (ip), vehicle: saline with Tween-80 87 % of control | dose: 3.0 mg/kg/injection, schedule: Q01DX009 (ip), vehicle: saline 89 % of control and 94 % of control

CO[C@@H]1[C@H](O)c2ccccc2N1C(C)=O
inactive: dose: 60.0 mg/kg/injection, schedule: Q01DX005 (ip), vehicle: saline 102 % of control | dose: 120.0 mg/kg/injection, schedule: Q01DX005 (ip), vehicle: saline 108 % of control | dose: 240.0 mg/kg/injection, schedule: Q01DX005 (ip), vehicle: saline 101 % of control

Nc1nc(SN=Nc2ccc(S(N)(=O)=O)cc2)c2[nH]cnc2n1
inactive: dose: 7.5 mg/kg/injection, schedule: Q01DX009 (ip), vehicle: saline 118 % of control | dose: 15.0 mg/kg/injection, schedule: Q01DX009 (ip), vehicle: saline 100 % of control

CCOc1ccc(-c2nn(C(=O)c3ccccc3)c(-c3ccccc3)c2N=Nc2ccc(S(=O)(=O)Nc3nnc(C)s3)cc2)cc1
inactive: dose: 100.0 mg/kg/injection, schedule: Q04DX002 (ip), vehicle: saline with Tween-80 93 % of control | dose: 200.0 mg/kg/injection, schedule: Q04DX002 (ip), vehicle: saline with Tween-80 89 % of control | dose: 400.0 mg/kg/injection, schedule: Q04DX002 (ip), vehicle: saline with Tween-80 93 % of control

CN(C)CCC(=O)c1ccc(Cl)cc1
inactive: [1] 106 % of control | [2] 105 % of control

O=c1oc(-c2ccc([N+](=O)[O-])cc2Cl)nc2ccccc12
inactive: [1] 106 % of control | [2] 105 % of control | [3] 106 % of control

O=C(CCS(=O)(=O)CCC(=O)C(c1ccccc1)c1ccccc1)C(c1ccccc1)c1ccccc1
inactive: [4] 97 % of control | dose: 200.0 mg/kg/injection, schedule: Q04DX003 (ip), vehicle: saline 94 % of control | dose: 400.0 mg/kg/injection, schedule: Q04DX003 (ip), vehicle: saline 90 % of control

C[CH2][Ge]([CH2]C)[CH2]C.C[CH2][Ge]([Cl])[CH2]C
inactive: [1] 100 % of control | [2] 100 % of control | [3] 91 % of control

C=CCC(CC)C(=O)Cl (stereo not given)
inactive: dose: 75.0 mg/kg/injection, schedule: Q01DX009 (ip), vehicle: saline with Tween-80 93 % of control | dose: 150.0 mg/kg/injection, schedule: Q01DX009 (ip), vehicle: saline with Tween-80 92 % of control | dose: 300.0 mg/kg/injection, schedule: Q01DX009 (ip), vehicle: saline with Tween-80 111 % of control

COc1ccc(-c2cc3cc(OC)c(OC)cc3c[n+]2C)cc1OC
inactive: dose: 25.0 mg/kg/injection, schedule: Q04DX003 (ip), vehicle: saline 96 % of control | dose: 50.0 mg/kg/injection, schedule: Q04DX003 (ip), vehicle: saline 94 % of control | [4] 104 % of control

NC(=O)CC1OC(=O)Cc2cc3c(c(O)c21)C(=O)c1c(O)cccc1C3=O (stereo not given)
inactive: dose: 0.75 mg/kg/injection, schedule: Q01DX009 (ip), vehicle: DMSO 109 % of control | dose: 1.5 mg/kg/injection, schedule: Q01DX009 (ip), vehicle: DMSO 107 % of control | dose: 3.0 mg/kg/injection, schedule: Q01DX009 (ip), vehicle: DMSO 107 % of control | dose: 6.0 mg/kg/injection, schedule: Q01DX009 (ip), vehicle: DMSO 107 % of control

Clc1ccc2[nH]c3c(c2c1)CCCC3
inactive: dose: 200.0 mg/kg/injection, schedule: Q04DX003 (ip), vehicle: saline with Tween-80 94 % of control
